# pEC50: −log10 of the molar value. Like-named read-outs stand apart in the source and are kept apart here.
# Tests used:
# [1] = In vitro hepatocyte clearance, human; assay type: in vitro ADME; details: Human hepatocytes; for half-life: read-out: In vitro T1/2; for CLint scaled: read-out: Scale-up Clint
# Experimental: (§1) Additional experimentation was performed on compounds 1, W5, and A93. Table 6a, 6b and 6c summarize, among other things, the anticipated hepatic clearance of compounds 1, W5 and A93 respectively, in various species, as specified in Table 6a, 6b and 6c and as determined by calculating the in vitro hepatocyte clearance over time and scaling such rate with such species' hepatocyte count and the anticipated liver blood flow rate in such species.
# hepatocyte [2] = assay: In vitro hepatocyte clearance, human; assay type: in vitro ADME; details: Human
# Experimental: as §1
# [3] = In vitro hepatocyte clearance, mouse; assay type: in vitro ADME; details: Mouse hepatocytes; for half-life: read-out: In vitro T1/2; for CLint scaled: read-out: Scale-up Clint
# Experimental: as §1
# hepatocyte [4] = assay: In vitro hepatocyte clearance, mouse; assay type: in vitro ADME; details: Mouse
# Experimental: as §1
# 5-HT2A [5] = molecular target: T1, 5-HT2A (Homo sapiens, UniProt P28223); assay: 5-HT2A Gq dissociation BRET functional assay; assay type: cell-based; parameters: expressed in transfected cells; host or cells: HEK293T; details: for 5-HT2A BRET Eff: normalized to % 5-HT stimulation
# 5-HT2B [6] = molecular target: T2, 5-HT2B (Homo sapiens, UniProt P41595); assay: 5-HT2B Gq dissociation BRET functional assay; assay type: cell-based; parameters: expressed in transfected cells; host or cells: HEK293T; details: for 5-HT2B BRET Eff: normalized to % 5-HT stimulation
# Target sequence in this assay (P41595 whole entry): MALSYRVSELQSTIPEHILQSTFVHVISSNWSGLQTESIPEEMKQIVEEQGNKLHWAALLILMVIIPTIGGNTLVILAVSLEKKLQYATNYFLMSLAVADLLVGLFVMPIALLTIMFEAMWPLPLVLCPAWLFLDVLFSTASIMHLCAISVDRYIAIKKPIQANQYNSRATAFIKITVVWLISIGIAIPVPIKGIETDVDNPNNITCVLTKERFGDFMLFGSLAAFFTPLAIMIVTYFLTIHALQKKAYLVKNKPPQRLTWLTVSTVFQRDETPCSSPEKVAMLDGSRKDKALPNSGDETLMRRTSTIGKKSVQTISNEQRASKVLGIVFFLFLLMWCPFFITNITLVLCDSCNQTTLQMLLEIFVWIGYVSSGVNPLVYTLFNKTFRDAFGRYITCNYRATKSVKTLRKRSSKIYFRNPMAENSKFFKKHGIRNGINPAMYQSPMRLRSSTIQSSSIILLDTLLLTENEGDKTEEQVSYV
# 5-HT2C = molecular target: T3, 5-HT2C (Homo sapiens, UniProt P28335); assay: cell-based; assay type: cell-based; parameters: expressed in transfected cells; host or cells: HEK293T; details: for pEC50: Gq dissociation BRET, HEK293T
# T3 sequence (P28335 33-458): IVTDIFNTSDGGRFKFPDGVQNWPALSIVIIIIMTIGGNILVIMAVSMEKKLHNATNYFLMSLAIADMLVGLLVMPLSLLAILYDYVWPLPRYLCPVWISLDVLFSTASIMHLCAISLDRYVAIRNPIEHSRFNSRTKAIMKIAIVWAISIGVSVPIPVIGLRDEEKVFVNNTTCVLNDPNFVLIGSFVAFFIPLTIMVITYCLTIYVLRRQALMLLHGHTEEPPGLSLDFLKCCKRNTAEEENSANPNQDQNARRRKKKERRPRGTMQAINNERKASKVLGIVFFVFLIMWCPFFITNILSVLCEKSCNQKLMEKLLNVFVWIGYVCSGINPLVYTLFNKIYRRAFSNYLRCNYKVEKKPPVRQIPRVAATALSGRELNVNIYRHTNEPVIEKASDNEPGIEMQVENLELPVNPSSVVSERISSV
# mice = assay: Head Twitch Response (HTR) in mice; assay type: in vivo; details: Mus musculus, 1 h, measured over a 60 minute interval
# Experimental: Head Twitch Response (HTR) was assessed using a head-mounted neodymium magnet and a magnetometer detection coil, as described in Halberstadt et al., Psychopharmacology (Berl.), 2013, 227 (4): 727-739. Table 8 below summarizes the ED50 in head twitch (as measured over a 60 minute interval) in mice as a result of Compound 1 as compared to psilocybin.
# 5-HT1A = molecular target: T4, 5-HT1A (Homo sapiens, UniProt P08908); assay: 5-HT receptor activity (Table 3), 5-HT1A; assay type: cell-based
# T4 sequence (P08908 1-422): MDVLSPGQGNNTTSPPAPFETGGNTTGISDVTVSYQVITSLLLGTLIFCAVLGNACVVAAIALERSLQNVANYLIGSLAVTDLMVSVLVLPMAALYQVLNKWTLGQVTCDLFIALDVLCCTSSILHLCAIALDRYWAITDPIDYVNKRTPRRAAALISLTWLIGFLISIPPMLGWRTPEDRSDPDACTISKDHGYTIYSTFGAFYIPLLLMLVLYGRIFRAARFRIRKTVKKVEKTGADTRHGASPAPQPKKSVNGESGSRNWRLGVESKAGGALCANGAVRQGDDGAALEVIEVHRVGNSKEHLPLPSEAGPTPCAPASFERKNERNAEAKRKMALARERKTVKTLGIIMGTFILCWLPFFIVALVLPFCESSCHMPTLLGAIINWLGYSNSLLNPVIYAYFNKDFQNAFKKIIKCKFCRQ
# 5-HT1B = 5-HT1B (Homo sapiens, UniProt P28222); assay: 5-HT receptor activity (Table 3), 5-HT1B; assay type: cell-based
# 5-HT1D = 5-HT1D (Homo sapiens, UniProt P28221); assay: 5-HT receptor activity (Table 3), 5-HT1D; assay type: cell-based
# 5-HT1E = 5-HT1E (Homo sapiens, UniProt P28566); assay: 5-HT receptor activity (Table 3), 5-HT1E; assay type: cell-based
# 5-HT1F = molecular target: T5, 5-HT1F (Homo sapiens, UniProt P30939); assay: 5-HT receptor activity (Table 3), 5-HT1F; assay type: cell-based
# T5 sequence (P30939 1-366): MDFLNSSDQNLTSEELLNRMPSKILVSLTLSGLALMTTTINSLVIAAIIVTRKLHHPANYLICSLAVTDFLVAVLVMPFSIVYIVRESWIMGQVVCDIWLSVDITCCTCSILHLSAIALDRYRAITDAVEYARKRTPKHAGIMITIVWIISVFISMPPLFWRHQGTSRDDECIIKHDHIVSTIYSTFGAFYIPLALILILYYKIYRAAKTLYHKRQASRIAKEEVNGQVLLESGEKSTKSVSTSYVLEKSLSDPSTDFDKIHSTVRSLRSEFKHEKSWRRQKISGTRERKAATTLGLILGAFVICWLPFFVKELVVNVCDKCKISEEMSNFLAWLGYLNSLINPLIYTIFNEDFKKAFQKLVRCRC
# 5-HT2A [7] = molecular target: T1, 5-HT2A; assay: 5-HT receptor activity (Table 3), 5-HT2A; assay type: cell-based; details: 5-HT2A, Table 3
# 5-HT2B [8] = molecular target: T2, 5-HT2B; assay: 5-HT receptor activity (Table 3), 5-HT2B; assay type: cell-based; details: 5-HT2B, Table 3
# Target sequence in this assay (P41595 whole entry, species assumed): as the sequence (P41595 whole entry) above
# 5-HT4 = 5-HT4 (Homo sapiens, UniProt Q13639); assay: 5-HT receptor activity (Table 3), 5-HT4; assay type: cell-based
# 5-HT5A = 5-HT5A (Homo sapiens, UniProt P47898); assay: 5-HT receptor activity (Table 3), 5-HT5A; assay type: cell-based
# 5-HT6 = 5-HT6 (Homo sapiens, UniProt P50406); assay: 5-HT receptor activity (Table 3), 5-HT6; assay type: cell-based
# 5-HT7 = 5-HT7 (Homo sapiens, UniProt P34969); assay: 5-HT receptor activity (Table 3), 5-HT7; assay type: cell-based
# [9] = normalized to % 5-HT stimulation
# T1 sequence (P28223 whole entry): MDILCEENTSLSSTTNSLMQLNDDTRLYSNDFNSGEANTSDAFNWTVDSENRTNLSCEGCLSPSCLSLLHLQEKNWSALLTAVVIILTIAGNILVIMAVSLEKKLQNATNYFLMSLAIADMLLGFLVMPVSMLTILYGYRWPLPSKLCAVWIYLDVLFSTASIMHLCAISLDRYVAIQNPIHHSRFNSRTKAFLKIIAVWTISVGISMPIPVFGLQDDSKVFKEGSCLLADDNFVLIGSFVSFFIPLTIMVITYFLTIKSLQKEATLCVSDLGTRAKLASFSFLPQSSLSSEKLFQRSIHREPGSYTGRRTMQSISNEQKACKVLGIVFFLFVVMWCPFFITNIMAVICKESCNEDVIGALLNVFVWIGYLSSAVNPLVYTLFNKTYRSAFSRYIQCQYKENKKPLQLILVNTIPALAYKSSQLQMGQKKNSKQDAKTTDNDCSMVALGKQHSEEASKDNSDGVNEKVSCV
# Sequence of 5-HT1E (P28566 whole entry, species assumed): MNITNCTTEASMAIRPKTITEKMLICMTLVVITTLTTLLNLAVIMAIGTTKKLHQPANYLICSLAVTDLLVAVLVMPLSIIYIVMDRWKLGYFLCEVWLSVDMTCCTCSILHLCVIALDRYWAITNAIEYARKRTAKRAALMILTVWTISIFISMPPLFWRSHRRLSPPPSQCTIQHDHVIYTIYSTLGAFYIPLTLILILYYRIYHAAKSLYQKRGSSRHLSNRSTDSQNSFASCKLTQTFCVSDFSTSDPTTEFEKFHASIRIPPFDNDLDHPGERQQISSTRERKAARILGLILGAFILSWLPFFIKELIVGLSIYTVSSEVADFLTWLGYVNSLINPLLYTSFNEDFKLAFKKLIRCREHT
# Sequence of 5-HT4 (Q13639 whole entry, species assumed): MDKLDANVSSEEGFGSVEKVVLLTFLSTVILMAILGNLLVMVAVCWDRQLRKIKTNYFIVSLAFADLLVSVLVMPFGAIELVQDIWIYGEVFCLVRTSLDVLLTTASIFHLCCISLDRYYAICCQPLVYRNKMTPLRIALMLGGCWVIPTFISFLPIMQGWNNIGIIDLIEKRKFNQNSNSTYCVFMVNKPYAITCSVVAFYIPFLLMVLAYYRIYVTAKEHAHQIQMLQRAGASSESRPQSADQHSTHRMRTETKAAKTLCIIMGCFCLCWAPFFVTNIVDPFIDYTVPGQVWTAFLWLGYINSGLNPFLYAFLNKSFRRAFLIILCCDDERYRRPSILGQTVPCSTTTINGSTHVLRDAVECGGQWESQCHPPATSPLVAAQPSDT
# Sequence of 5-HT5A (P47898 whole entry, species assumed): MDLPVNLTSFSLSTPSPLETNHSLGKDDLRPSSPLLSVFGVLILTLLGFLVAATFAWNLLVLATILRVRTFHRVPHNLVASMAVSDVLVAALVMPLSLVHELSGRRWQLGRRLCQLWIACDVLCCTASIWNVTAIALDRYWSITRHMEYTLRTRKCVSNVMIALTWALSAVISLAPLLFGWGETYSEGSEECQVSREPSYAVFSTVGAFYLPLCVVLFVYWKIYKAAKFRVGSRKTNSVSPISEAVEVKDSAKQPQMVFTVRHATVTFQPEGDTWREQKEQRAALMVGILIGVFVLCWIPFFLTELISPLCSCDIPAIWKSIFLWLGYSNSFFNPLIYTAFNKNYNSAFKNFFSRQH
# Sequence of 5-HT7 (P34969 whole entry, species assumed): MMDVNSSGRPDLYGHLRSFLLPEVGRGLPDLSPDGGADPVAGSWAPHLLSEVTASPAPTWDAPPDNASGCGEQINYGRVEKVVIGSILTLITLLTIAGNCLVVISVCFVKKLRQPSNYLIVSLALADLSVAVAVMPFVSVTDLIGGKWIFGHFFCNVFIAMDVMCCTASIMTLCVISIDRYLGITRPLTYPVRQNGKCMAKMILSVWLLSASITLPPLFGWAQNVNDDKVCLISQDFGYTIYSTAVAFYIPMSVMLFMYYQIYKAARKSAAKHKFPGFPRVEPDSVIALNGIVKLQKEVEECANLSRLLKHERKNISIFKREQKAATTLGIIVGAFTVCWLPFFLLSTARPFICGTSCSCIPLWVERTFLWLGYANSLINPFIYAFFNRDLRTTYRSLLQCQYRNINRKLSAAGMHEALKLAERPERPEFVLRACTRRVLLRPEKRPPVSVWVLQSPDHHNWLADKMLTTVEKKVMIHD
# Sequence of 5-HT1D (P28221 whole entry, species assumed): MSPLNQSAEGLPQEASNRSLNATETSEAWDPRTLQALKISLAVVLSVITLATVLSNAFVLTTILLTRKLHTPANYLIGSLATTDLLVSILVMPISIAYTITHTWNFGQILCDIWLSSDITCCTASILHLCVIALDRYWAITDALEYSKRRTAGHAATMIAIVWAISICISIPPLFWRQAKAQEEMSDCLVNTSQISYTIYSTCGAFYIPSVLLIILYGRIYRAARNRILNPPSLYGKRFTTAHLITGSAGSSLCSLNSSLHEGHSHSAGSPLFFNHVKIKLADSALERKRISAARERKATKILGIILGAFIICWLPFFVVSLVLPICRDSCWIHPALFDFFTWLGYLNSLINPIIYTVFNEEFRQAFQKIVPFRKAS
# Sequence of 5-HT1B (P28222 whole entry, species assumed): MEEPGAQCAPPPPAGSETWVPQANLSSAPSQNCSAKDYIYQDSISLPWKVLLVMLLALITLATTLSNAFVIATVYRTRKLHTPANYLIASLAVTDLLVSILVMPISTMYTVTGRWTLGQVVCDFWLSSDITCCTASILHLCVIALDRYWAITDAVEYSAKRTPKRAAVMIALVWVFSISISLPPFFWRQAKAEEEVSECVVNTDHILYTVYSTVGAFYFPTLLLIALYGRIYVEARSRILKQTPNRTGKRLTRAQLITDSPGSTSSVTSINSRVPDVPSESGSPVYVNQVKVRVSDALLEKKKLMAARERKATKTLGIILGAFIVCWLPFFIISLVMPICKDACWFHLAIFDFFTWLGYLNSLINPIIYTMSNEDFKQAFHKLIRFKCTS
# Sequence of 5-HT6 (P50406 whole entry, species assumed): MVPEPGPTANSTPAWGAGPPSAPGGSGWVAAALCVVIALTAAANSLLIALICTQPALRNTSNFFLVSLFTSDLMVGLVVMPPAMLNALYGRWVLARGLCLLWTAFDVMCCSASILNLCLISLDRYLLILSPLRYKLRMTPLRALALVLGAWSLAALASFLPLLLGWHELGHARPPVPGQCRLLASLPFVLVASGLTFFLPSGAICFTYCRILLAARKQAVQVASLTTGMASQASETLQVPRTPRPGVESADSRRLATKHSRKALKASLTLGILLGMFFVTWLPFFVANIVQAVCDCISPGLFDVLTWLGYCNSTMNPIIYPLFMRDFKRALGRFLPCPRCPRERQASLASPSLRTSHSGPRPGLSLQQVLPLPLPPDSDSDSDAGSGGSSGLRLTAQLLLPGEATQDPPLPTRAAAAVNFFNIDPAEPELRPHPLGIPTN
SMILES,pEC50 (5-HT2A [5]),5-HT2A BRET Eff (5-HT2A [5]) [%],pEC50 (5-HT2B [6]),5-HT2B BRET Eff (5-HT2B [6]) [%],pEC50 (5-HT2C),5-HT2C BRET Eff (5-HT2C; [9]) [%],other results
Oc1cccc2[nH]c3c(c12)CCNCC3 [Cpd #67 (A93)],8.40,97,7.25,57,8.24,94,hepatocyte CLint [1]: < 2.71 µL/min/1e6 cells; half-life [1]: > 8.53 h; CLint scaled [1]: < 6.89 mL/min/kg; Hepatic Extraction Ratio (E) (hepatocyte [2]): <0.25; Predicted hepatic CL (hepatocyte [2]): <5.17 mL/min/kg; hepatocyte CLint [3]: < 2.71 µL/min/1e6 cells; half-life [3]: > 8.53 h; CLint scaled [3]: < 32 mL/min/kg; Hepatic Extraction Ratio (E) (hepatocyte [4]): <0.26; Predicted hepatic CL (hepatocyte [4]): <23.60 mL/min/kg
CN1CCc2c(n(C)c3cccc(O)c23)CC1 [Cpd #64 (A96)],7.82,87,7.04,46,8.17,79,–
CN1CCc2[nH]c3cccc(O)c3c2CC1 [Cpd #66 (A94)],8.09,91,7.32,28,7.73,89,–
"NCCc1c[nH]c2cccc(O)c12 [4-hydroxytryptamine, reference compound]",–,100,–,100,–,–,5-HT2C BRET Eff (5-HT2C): 99%
Cc1ccc(O)c2[nH]c3c(c12)CCNCC3 [Pharm-159],8.46,96,8.52,95,9.77,99,–
Cc1ccc(O)c2c3c([nH]c12)C(C)CNCC3 (centres unmarked) [Cpd #45 (W8)],8.19,98,8.89,54,8.92,99,–
Cn1c2c(c3c(O)cccc31)CCNCC2 [Cpd #65 (A95)],8.23,96,7.39,70,8.55,93,–
Cc1ccc(O)c2c3c([nH]c12)CCN(Cc1ccccc1O)CC3 [Cpd #18 (A90)],7.51,76,8.57,−2.6,7.62,93,–
Cc1cc(F)c(O)c2c3c([nH]c12)CCNCC3 [Cpd #27 (A92)],8.21,97,7.85,77,8.55,101,–
Cc1ccc(O)c2c3c([nH]c12)CCN(C)CC3 [Cpd #14 (W5)],8.41,89,7.64,25,8.89,87,hepatocyte CLint [1]: 1.26 µL/min/1e6 cells; half-life [1]: 20.9 h; CLint scaled [1]: 3.22 mL/min/kg; Hepatic Extraction Ratio (E) (hepatocyte [2]): 0.13; Predicted hepatic CL (hepatocyte [2]): 2.74 mL/min/kg; hepatocyte CLint [3]: 40.7 µL/min/1e6 cells; half-life [3]: 0.568 h; CLint scaled [3]: 480 mL/min/kg; Hepatic Extraction Ratio (E) (hepatocyte [4]): 0.84; Predicted hepatic CL (hepatocyte [4]): 75.80 mL/min/kg
"CN(C)CCc1c[nH]c2cccc(OP(=O)(O)O)c12 [Psilocybin, psilocybin, reference compound]",–,–,–,–,–,–,ED50 (mice): 0.38 mg/kg
"Cc1cccc2c(CCN(C)C)c[nH]c12 [7,N,N-TMT, reference compound]",–,80,–,36,–,79,"pEC50 (5-HT2B [6]; Gq dissociation BRET, HEK293T, read-out: 5-HT2B BRET EC50): 7.13"
"CN(C)CCc1c[nH]c2cccc(O)c12 [psilocin, reference compound]",–,82,–,63,–,–,Eff (5-HT1A): 93%; Eff (5-HT1B): 94%; Eff (5-HT1D): 102%; Eff (5-HT1E): 90%; Eff (5-HT1F): 93%; Eff (5-HT2A [7]): 80%; Eff (5-HT2B [8]): 32%; Eff (5-HT4): 81%; Eff (5-HT5A): 48%; Eff (5-HT6): 74%; Eff (5-HT7): 86%

# From patent publication US20250296934A1, “AZEPINOINDOLES AND METHODS OF PREPARATION THEREOF” (priority 2022, published 2025)
